Laboratory results published in patent US10144762B2, “Antibacterial antisense oligonucleotide and method” (priority 2005, dated 2018).
pIC50: −log10 of the molar value. Values after ≈ are worked out from the molar mass of the structure shown. Values joined by “and” are separate entries in the source; they are usually repeats but may differ in a detail not shown here. Identical values can stand only once. Like-named read-outs stand apart in the source and are kept apart here.

Columns and labels:
E. coli W3110 [1] = test: E. coli W3110 pure culture, CFU/ml and dose-response; format: cell-based
E. coli W3110 [2] = test: MIC, broth microdilution method of the Clinical and Laboratory Standards Institute; format: cell-based; settings: Escherichia coli, read-out: minimum inhibitory concentration (MIC)
[3] = tested on: E. coli AS19 (pT7myc-luc); format: in vivo; settings: mice; for CFU/ml (×10^6): peritoneal lavage
luciferase transcript [4] = tested on: luciferase transcript; parameters: species or system firefly; settings: in vivo
luciferase transcript [5] = test: Western blot of luciferase protein normalized to OmpA in peritoneal lavage bacteria; format: in vivo, firefly; parameters: Western Blot % Inhibition (luciferase protein): concentration or dose not given beside the values; settings: for Western Blot % Inhibition (luciferase protein): compared to nonsense PMO-treated mice; for Western Blot Luc/OmpA Mean: n = 7-8
E. coli AS19 = format: cell-based

pIC50 (E. coli W3110 [1]; Escherichia coli, E. coli W3110 pure culture (FIG. 14), read-out: IC50 (50% inhibitory concentration)) | MIC (E. coli W3110 [2]) [µM] | Compound | antibacterial activity (CFU/ml after 8 hours) (E. coli W3110 [1]; E. coli W3110 (FIG. 13)) | CFU/ml (×10^6) ([3]; 13 h after treatment) | CFU/ml (×10^6) ([3]; 22 h after treatment) | inhibition of growth compared to nonsense PMO treatment ([3]; treated at 0 and 13 hours post-infection) | Luciferase Activity % Inhibition (luciferase transcript [4]) | Luciferase Activity RLU/CFU Mean (luciferase transcript [4]) | Western Blot % Inhibition (luciferase protein) (luciferase transcript [5]; 13 h) [%] | Western Blot Luc/OmpA Mean (luciferase transcript [5]; 13 h after treatment) | Western Blot % Inhibition (luciferase protein) (luciferase transcript [5]; 22 h) [%] | Western Blot % Inhibition (luciferase protein) (luciferase transcript [5]; 22 h, listed as luc PMO) [%] | Western Blot Luc/OmpA Mean (luciferase transcript [5]; 22 h after treatment) | growth monitored by optical density (E. coli AS19) | viable cells (CFU/ml) (E. coli AS19)
5.11 | 10 (≈ 3.49 µg/mL) | CC1(C)S[C@@H]2[C@H](NC(=O)[C@H](N)c3ccccc3)C(=O)N2[C@H]1C(=O)O [ampicillin] | showed antibacterial activity | – | – | – | – | – | – | – | – | – | – | – | –
– | – | Luc: PMO complementary to the region around the start codon of the luciferase transcript, ACG TTG AGG C, SEQ ID NO 77 (antisense ACGTTGAGGC; all phosphorodiamidate morpholino (PMO)) | – | 6.3 ×10^6 CFU/ml | 0.96 ×10^6 CFU/ml | no inhibition of growth | 53% and 46% | 3.20 RLU/CFU and 2.90 RLU/CFU | 68 | 0.122 | 57 | 47 | 0.147 | – | –
– | – | Nonsense: nonsense PMO control for luc PMO, TCC ACT TGC C, SEQ ID NO 78 (TCCACTTGCC; all phosphorodiamidate morpholino (PMO)) [reference compound] | – | 4.3 ×10^6 CFU/ml | 0.39 ×10^6 CFU/ml | – | – | 6.19 RLU/CFU and 8.12* RLU/CFU | 0 | 0.382 | 0 | – | 0.339 | – | –
– | – | PMO 62-4: acpP-14mer PMO, TC GAT AGT GCT CAT, SEQ ID NO 65 (antisense TCGATAGTGCTCAT; all phosphorodiamidate morpholino (PMO)) | – | – | – | – | – | – | – | – | – | – | – | statistically insignificant inhibitions | significantly reduced
